System: 786-0
Experiment: Anticancer activity against human 786-0 cells assessed as cell growth inhibition at 10 uM incubated for 48 hrs by SRB assay relative to control
Assay type: functional
Conditions: read-out: GI

Question: For `NS(=O)(=O)c1ccc(Nc2nc(N/N=C/c3ccc(Cl)cc3)nc(Nc3ccccc3)n2)cc1`, which inhibition of growth at 10 µM is on record?
Answer: 59%

System: UO-31
Experiment: Anticancer activity against human UO-31 cells assessed as cell growth inhibition at 10 uM incubated for 48 hrs by SRB assay relative to control
Assay type: functional
Conditions: read-out: GI

Question: `NS(=O)(=O)c1ccc(Nc2nc(N/N=C/c3ccc(Cl)cc3)nc(Nc3ccccc3)n2)cc1` was tested. Which inhibition of growth at 10 µM did it give?
Answer: 17%

System: SNB-75
Experiment: Anticancer activity against human SNB-75 cells assessed as cell growth inhibition at 10 uM incubated for 48 hrs by SRB assay relative to control
Assay type: functional
Conditions: read-out: GI

Question: For `NS(=O)(=O)c1ccc(Nc2nc(N/N=C/c3ccc(Cl)cc3)nc(Nc3ccccc3)n2)cc1`, which inhibition of growth at 10 µM is on record?
Answer: < 10%

System: HCC 2998
Experiment: Anticancer activity against human HCC 2998 cells assessed as cell growth inhibition at 10 uM incubated for 48 hrs by SRB assay relative to control
Assay type: functional
Conditions: read-out: GI

Question: For `NS(=O)(=O)c1ccc(Nc2nc(N/N=C/c3ccc(Cl)cc3)nc(Nc3ccccc3)n2)cc1`, which inhibition of growth at 10 µM is on record?
Answer: 23%

System: Malme-3M
Experiment: Anticancer activity against human Malme-3M cells assessed as cell growth inhibition at 10 uM incubated for 48 hrs by SRB assay relative to control
Assay type: functional
Conditions: read-out: GI

Question: For `NS(=O)(=O)c1ccc(Nc2nc(N/N=C/c3ccc(Cl)cc3)nc(Nc3ccccc3)n2)cc1`, which inhibition of growth at 10 µM is on record?
Answer: 11%

System: UACC-62
Experiment: Anticancer activity against human UACC-62 cells assessed as cell growth inhibition at 10 uM incubated for 48 hrs by SRB assay relative to control
Assay type: functional
Conditions: read-out: GI

Question: Which inhibition of growth at 10 µM does the source give for `NS(=O)(=O)c1ccc(Nc2nc(N/N=C/c3ccc(Cl)cc3)nc(Nc3ccccc3)n2)cc1` here?
Answer: 25%

System: COLO 205
Experiment: Anticancer activity against human COLO 205 cells assessed as cell growth inhibition at 10 uM incubated for 48 hrs by SRB assay relative to control
Assay type: functional
Conditions: read-out: GI

Question: How did the inhibition of growth at 10 µM turn out when `NS(=O)(=O)c1ccc(Nc2nc(N/N=C/c3ccc(Cl)cc3)nc(Nc3ccccc3)n2)cc1` was run?
Answer: 26%

Target: Carbonic anhydrase 9 (Homo sapiens, UniProt Q16790)
Experiment: Inhibition of recombinant human CA 9 preincubated for 15 mins by phenol red dye based stopped flow CO2 hydration assay
Conditions: not given

Question: With `NS(=O)(=O)c1ccc(Nc2nc(N/N=C/c3ccc(Cl)cc3)nc(Nc3ccccc3)n2)cc1` as the molecule, how does the Ki read?
Answer: 22.6 nM

System: CCRF-CEM
Experiment: Anticancer activity against human CCRF-CEM cells assessed as cell growth inhibition at 10 uM incubated for 48 hrs by SRB assay relative to control
Assay type: functional
Conditions: read-out: GI

Question: Which inhibition of growth at 10 µM does the source give for `NS(=O)(=O)c1ccc(Nc2nc(N/N=C/c3ccc(Cl)cc3)nc(Nc3ccccc3)n2)cc1` here?
Answer: 80%

System: OVCAR-5
Experiment: Anticancer activity against human OVCAR-5 cells assessed as cell growth inhibition at 10 uM incubated for 48 hrs by SRB assay relative to control
Assay type: functional
Conditions: read-out: GI

Question: Which inhibition of growth at 10 µM does the source give for `NS(=O)(=O)c1ccc(Nc2nc(N/N=C/c3ccc(Cl)cc3)nc(Nc3ccccc3)n2)cc1` here?
Answer: 16%

System: MDA-MB-468
Experiment: Anticancer activity against human MDA-MB-468 cells assessed as cell growth inhibition at 10 uM incubated for 48 hrs by SRB assay relative to control
Assay type: functional
Conditions: read-out: GI

Question: How did the inhibition of growth at 10 µM turn out when `NS(=O)(=O)c1ccc(Nc2nc(N/N=C/c3ccc(Cl)cc3)nc(Nc3ccccc3)n2)cc1` was run?
Answer: 33%

System: HCT-116
Experiment: Anticancer activity against human HCT-116 cells assessed as cell growth inhibition at 10 uM incubated for 48 hrs by SRB assay relative to control
Assay type: functional
Conditions: read-out: GI

Question: Which inhibition of growth at 10 µM does the source give for `NS(=O)(=O)c1ccc(Nc2nc(N/N=C/c3ccc(Cl)cc3)nc(Nc3ccccc3)n2)cc1` here?
Answer: 55%

System: NCI-H460
Experiment: Anticancer activity against human NCI-H460 cells assessed as cell growth inhibition at 10 uM incubated for 48 hrs by SRB assay relative to control
Assay type: functional
Conditions: read-out: GI

Question: `NS(=O)(=O)c1ccc(Nc2nc(N/N=C/c3ccc(Cl)cc3)nc(Nc3ccccc3)n2)cc1` was tested. Which inhibition of growth at 10 µM did it give?
Answer: 27%

System: SF-539
Experiment: Anticancer activity against human SF-539 cells assessed as cell growth inhibition at 10 uM incubated for 48 hrs by SRB assay relative to control
Assay type: functional
Conditions: read-out: GI

Question: With `NS(=O)(=O)c1ccc(Nc2nc(N/N=C/c3ccc(Cl)cc3)nc(Nc3ccccc3)n2)cc1` as the molecule, how does the inhibition of growth at 10 µM read?
Answer: 46%

System: HOP-92
Experiment: Anticancer activity against human HOP-92 cells assessed as cell growth inhibition at 10 uM incubated for 48 hrs by SRB assay relative to control
Assay type: functional
Conditions: read-out: GI

Question: For `NS(=O)(=O)c1ccc(Nc2nc(N/N=C/c3ccc(Cl)cc3)nc(Nc3ccccc3)n2)cc1`, which inhibition of growth at 10 µM is on record?
Answer: < 10%

System: HCT-15
Experiment: Anticancer activity against human HCT-15 cells assessed as cell growth inhibition at 10 uM incubated for 48 hrs by SRB assay relative to control
Assay type: functional
Conditions: read-out: GI

Question: Which inhibition of growth at 10 µM does the source give for `NS(=O)(=O)c1ccc(Nc2nc(N/N=C/c3ccc(Cl)cc3)nc(Nc3ccccc3)n2)cc1` here?
Answer: 23%

System: NCI-H23
Experiment: Anticancer activity against human NCI-H23 cells assessed as cell growth inhibition at 10 uM incubated for 48 hrs by SRB assay relative to control
Assay type: functional
Conditions: read-out: GI

Question: How did the inhibition of growth at 10 µM turn out when `NS(=O)(=O)c1ccc(Nc2nc(N/N=C/c3ccc(Cl)cc3)nc(Nc3ccccc3)n2)cc1` was run?
Answer: 12%

System: SR
Experiment: Anticancer activity against human SR cells assessed as cell growth inhibition at 10 uM incubated for 48 hrs by SRB assay relative to control
Assay type: functional
Conditions: read-out: GI

Question: `NS(=O)(=O)c1ccc(Nc2nc(N/N=C/c3ccc(Cl)cc3)nc(Nc3ccccc3)n2)cc1` was tested. Which inhibition of growth at 10 µM did it give?
Answer: 81%

System: RXF 393
Experiment: Anticancer activity against human RXF 393 cells assessed as cell growth inhibition at 10 uM incubated for 48 hrs by SRB assay relative to control
Assay type: functional
Conditions: read-out: GI

Question: `NS(=O)(=O)c1ccc(Nc2nc(N/N=C/c3ccc(Cl)cc3)nc(Nc3ccccc3)n2)cc1` was tested. Which inhibition of growth at 10 µM did it give?
Answer: 111%

System: SW-620
Experiment: Anticancer activity against human SW-620 cells assessed as cell growth inhibition at 10 uM incubated for 48 hrs by SRB assay relative to control
Assay type: functional
Conditions: read-out: GI

Question: How did the inhibition of growth at 10 µM turn out when `NS(=O)(=O)c1ccc(Nc2nc(N/N=C/c3ccc(Cl)cc3)nc(Nc3ccccc3)n2)cc1` was run?
Answer: < 10%

Reference: ChEMBL document CHEMBL5154747, “Discovery of new carbonic anhydrase IX inhibitors as anticancer agents by toning the hydrophobic and hydrophilic rims of the active site to encounter the dual-tail approach” (Eur J Med Chem, 2022)
